Assay results from BindingDB's records for doi:10.1002/cbic.201000376 (Gyeongsang National University, 2010).

Molecular target: Alpha-glucosidase MAL12 (Saccharomyces cerevisiae (strain ATCC 204508 / S288c), UniProt P53341)
Assay: Inhibition Assay
Protocol: All enzymatic activities were determined by using the appropriate substrate (p-nitrophenyl-alpha-D-glucopyranoside, p-nitrophenyl-beta-D-gulcopyranoside, o-nitrophenyl-alpha-D-manno-pyranoside, p-nitrohenyl-alpha-D-galactopyranoside and strach at the pH or each enzyme.

Chain of Alpha-glucosidase MAL12 (P53341 whole entry): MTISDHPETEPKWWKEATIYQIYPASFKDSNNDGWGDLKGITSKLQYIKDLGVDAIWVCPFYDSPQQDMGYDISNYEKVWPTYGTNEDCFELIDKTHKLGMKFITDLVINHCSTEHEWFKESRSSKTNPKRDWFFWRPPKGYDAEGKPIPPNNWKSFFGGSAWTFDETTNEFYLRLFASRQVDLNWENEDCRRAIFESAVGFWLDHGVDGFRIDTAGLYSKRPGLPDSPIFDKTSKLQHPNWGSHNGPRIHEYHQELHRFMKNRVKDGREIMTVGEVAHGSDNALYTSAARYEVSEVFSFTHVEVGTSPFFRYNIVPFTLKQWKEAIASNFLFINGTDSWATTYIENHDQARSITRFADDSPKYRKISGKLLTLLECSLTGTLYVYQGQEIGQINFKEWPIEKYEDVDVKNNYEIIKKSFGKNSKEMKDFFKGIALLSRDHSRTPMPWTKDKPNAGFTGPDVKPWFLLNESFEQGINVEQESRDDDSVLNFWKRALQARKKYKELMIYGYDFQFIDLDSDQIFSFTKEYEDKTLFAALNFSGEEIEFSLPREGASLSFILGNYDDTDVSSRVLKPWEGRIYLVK

Row | SMILES | IC50 [µM] | Ki [µM]
1 | Nc1ccc(/C=C/c2ccc(O)cc2)cc1 | > 200 | 
2 | Oc1ccc(/C=C/c2cc(O)cc(O)c2)cc1 [5-[(E)-2-(4-hydroxyphenyl)ethenyl]benzene-1,3-diol] | 26.4 | 21.5
3 | CNc1ccc(/C=C/c2ccc(O)c(O)c2)cc1 [Stilbene derivative, 4] | > 200 | 
4 | CC(=O)Nc1ccc(/C=C/c2ccc(O)c(O)c2)cc1 [Stilbene derivative, 5] | > 200 | 
5 | O=C(Nc1ccccc1)Nc1ccc(/C=C/c2ccc(O)c(O)c2)cc1 [Urea derivative, 6] | 42.1 | 10.6
6 | COc1ccc(NC(=O)Nc2ccc(/C=C/c3ccc(O)c(O)c3)cc2)cc1 [Urea derivative, 7] | 19.5 | 10.5
7 | Nc1ccc(NC(=O)Nc2ccc(/C=C/c3ccc(O)c(O)c3)cc2)cc1 [Urea derivative, 8] | 68.5 | 
8 | Cc1ccc(NC(=O)Nc2ccc(/C=C/c3ccc(O)c(O)c3)cc2)cc1 [Urea derivative, 9] | 63.6 | 
9 | O=C(Nc1ccc(/C=C/c2ccc(O)c(O)c2)cc1)Nc1ccc(C(F)(F)F)cc1 [Urea derivative, 10] | 28.8 | 12.1
10 | O=C(Nc1ccc(F)cc1)Nc1ccc(/C=C/c2ccc(O)c(O)c2)cc1 [Urea derivative, 11] | 19.8 | 7.2
11 | O=C(Nc1ccc(/C=C/c2ccc(O)c(O)c2)cc1)Nc1ccc(F)cc1F [Urea derivative, 12] | 8.4 | 3.2
12 | O=C(Nc1ccc(Cl)cc1)Nc1ccc(/C=C/c2ccc(O)c(O)c2)cc1 [Urea derivative, 13] | 14.3 | 4.6
13 | O=C(Nc1ccccc1)Nc1ccc(/C=C/c2ccc(O)cc2)cc1 [Urea derivative, 14] | 29.1 | 17
14 | COc1ccc(NC(=O)Nc2ccc(/C=C/c3ccc(O)cc3)cc2)cc1 [Urea derivative, 15] | 60.1 | 
15 | O=C(Nc1ccc(/C=C/c2ccc(O)cc2)cc1)Nc1ccc(F)cc1F [Urea derivative, 16] | 18.5 | 9.4
16 | O=C(Nc1ccccc1)Nc1ccc(/C=C/c2cc(O)cc(O)c2)cc1 [Urea derivative, 17] | 58.8 | 
17 | COc1ccc(NC(=O)Nc2ccc(/C=C/c3cc(O)cc(O)c3)cc2)cc1 [Urea derivative, 18] | 105 | 
18 | O=C(Nc1ccc(/C=C/c2cc(O)cc(O)c2)cc1)Nc1ccc(F)cc1F [Urea derivative, 19] | 64.3 | 
